US7503965B2, “Azo compound, ink composition, and colored object” (Nippon Kayaku Kabushiki Kaisha, priority 2004, dated 2009)

Experiment: solubility in water (ammonia alkali) by filter paper spot
Format: physicochemical
Conditions: aqueous buffer

solubility	Structure (SMILES)
≥ 100 mg/mL	Nc1c(N=Nc2ccc3c(O)c(N=Nc4ccc(N=Nc5c(C(=O)O)nn(-c6ccc(S(=O)(=O)O)cc6)c5O)c(S(=O)(=O)O)c4)c(S(=O)(=O)O)cc3c2S(=O)(=O)O)cc(S(=O)(=O)O)c2cc(S(=O)(=O)O)c(N=Nc3ccc([N+](=O)[O-])cc3S(=O)(=O)O)c(O)c12 [compound 1]
≥ 100 mg/mL	Nc1c(N=Nc2ccc3c(O)c(N=Nc4cc(S(=O)(=O)O)c(N=Nc5c(C(=O)O)nn(-c6ccc(S(=O)(=O)O)cc6)c5O)cc4S(=O)(=O)O)c(S(=O)(=O)O)cc3c2S(=O)(=O)O)cc(S(=O)(=O)O)c2cc(S(=O)(=O)O)c(N=Nc3ccc([N+](=O)[O-])cc3S(=O)(=O)O)c(O)c12 [compound 9]
≥ 100 mg/mL	Nc1c(N=Nc2ccc3c(O)c(N=Nc4ccc(S(=O)(=O)O)c(/N=N/c5c(C(=O)O)nn(-c6ccc(S(=O)(=O)O)cc6)c5O)c4)c(S(=O)(=O)O)cc3c2S(=O)(=O)O)cc(S(=O)(=O)O)c2cc(S(=O)(=O)O)c(N=Nc3ccc([N+](=O)[O-])cc3S(=O)(=O)O)c(O)c12 [compound 13]
≥ 100 mg/mL	Nc1c(N=Nc2ccc3c(O)c(N=Nc4ccc(N=Nc5c(C(=O)O)nn(-c6cc(S(=O)(=O)O)ccc6S(=O)(=O)O)c5O)c(S(=O)(=O)O)c4)c(S(=O)(=O)O)cc3c2S(=O)(=O)O)cc(S(=O)(=O)O)c2cc(S(=O)(=O)O)c(N=Nc3ccc([N+](=O)[O-])cc3S(=O)(=O)O)c(O)c12 [compound 21]
≥ 100 mg/mL	Nc1c(N=Nc2ccc3c(O)c(N=Nc4ccc(N=Nc5c(C(=O)O)nn(-c6ccc(S(=O)(=O)O)cc6)c5O)c(S(=O)(=O)O)c4)c(S(=O)(=O)O)cc3c2S(=O)(=O)O)cc(S(=O)(=O)O)c2cc(S(=O)(=O)O)c(N=Nc3ccc(S(=O)(=O)O)cc3[N+](=O)[O-])c(O)c12 [compound 22]
≥ 100 mg/mL	Nc1c(N=Nc2ccc3c(O)c(N=Nc4cc(S(=O)(=O)O)c(N=Nc5c(C(=O)O)nn(-c6ccc(S(=O)(=O)O)cc6)c5O)cc4S(=O)(=O)O)c(S(=O)(=O)O)cc3c2S(=O)(=O)O)cc(S(=O)(=O)O)c2cc(S(=O)(=O)O)c(N=Nc3ccc(S(=O)(=O)O)cc3[N+](=O)[O-])c(O)c12 [compound 23]
≥ 100 mg/mL	COc1cc([N+](=O)[O-])c(S(=O)(=O)O)cc1N=Nc1c(S(=O)(=O)O)cc2c(S(=O)(=O)O)cc(N=Nc3ccc4c(O)c(N=Nc5ccc(N=Nc6c(C(=O)O)nn(-c7ccc(S(=O)(=O)O)cc7)c6O)c(S(=O)(=O)O)c5)c(S(=O)(=O)O)cc4c3S(=O)(=O)O)c(N)c2c1O [compound 24]
≥ 100 mg/mL	Nc1c(N=Nc2ccc3c(O)c(N=Nc4cc(Cl)c(N=Nc5c(C(=O)O)nn(-c6ccc(S(=O)(=O)O)cc6)c5O)c(S(=O)(=O)O)c4)c(S(=O)(=O)O)cc3c2S(=O)(=O)O)cc(S(=O)(=O)O)c2cc(S(=O)(=O)O)c(N=Nc3ccc([N+](=O)[O-])cc3S(=O)(=O)O)c(O)c12 [compound 25]
≥ 100 mg/mL	Nc1c(N=Nc2ccc3c(O)c(N=Nc4cc(C(=O)O)c(N=Nc5c(C(=O)O)nn(-c6ccc(S(=O)(=O)O)cc6)c5O)c(S(=O)(=O)O)c4)c(S(=O)(=O)O)cc3c2S(=O)(=O)O)cc(S(=O)(=O)O)c2cc(S(=O)(=O)O)c(N=Nc3ccc([N+](=O)[O-])cc3S(=O)(=O)O)c(O)c12 [compound 26]
≥ 100 mg/mL	Nc1c(N=Nc2ccc3c(O)c(N=Nc4ccc(N=Nc5c(C(=O)O)nn(-c6cc(C(=O)O)cc(C(=O)O)c6)c5O)c(S(=O)(=O)O)c4)c(S(=O)(=O)O)cc3c2S(=O)(=O)O)cc(S(=O)(=O)O)c2cc(S(=O)(=O)O)c(N=Nc3ccc([N+](=O)[O-])cc3S(=O)(=O)O)c(O)c12 [compound 27]
